In PubChem BioAssay (NCI):
Values joined by “and” are separate entries in the source; they are usually repeats but may differ in a detail not shown here. Equal entries are not always repeated.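 In this assay, cells in 96-well plates receive the compound at five concentrations for 48 hours. Endpoints are linearly interpolated between the surrounding concentrations. GI50 = concentration required for 50% inhibition of growth. The concentration for full growth arrest is given as TGI.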 Where a SMILES comes first, the peptide text is derived from it. [ ]: non-standard residue; d: D form. Phe(ol) = N[C@H](CO)Cc1ccccc1; Aib = CC(C)(N)C(=O)O

System: MDA-MB-468 breast
Experiment: NCI-60 cell line screen, 48 h

Structure (SMILES): N#Cc1ccc2c(-c3ccnc(NC4CC4)n3)c(-c3ccc(F)cc3)nn2c1
- GI50: > 24.2 µM
- TGI: > 25 µM

Structure (SMILES): COC(=O)[C@]12CC[C@@H](C)[C@H](C)[C@@H]1C1=CC[C@@H]3[C@@]4(C)C[C@@H](OC(C)=O)[C@H](OC(C)=O)[C@@](C)(COC(C)=O)[C@@H]4[C@H](O)C[C@@]3(C)[C@]1(C)CC2
- GI50: 0.832 µM
- TGI: 46 µM

Structure (SMILES): COc1cc(F)c(F)c(Nc2ccc(I)cc2F)c1NS(=O)(=O)C1(CC(O)CO)CC1 (configuration not stated)
- GI50: 14.4 µM
- TGI: 47.7 µM

Structure (SMILES): CC(Nc1c(C#N)cnc2ccc(-c3cncc(O)c3)cc12)c1ccccc1 (configuration not stated)
- GI50: 0.913 µM
- TGI: 3.43 µM

Structure (SMILES): COc1ccc(/C(=C(\c2ccccc2)[N+](=O)[O-])c2ccc(OCCN3CCCC3)cc2)cc1
- GI50: 1.75 µM
- TGI: 4.27 µM

Structure (SMILES): O=C(/C=C/c1ccco1)Nc1ncc(Cc2cc(Cl)ccc2Cl)s1
- GI50: 0.15 µM
- TGI: > 46 µM

Structure (SMILES): CCCCCn1sc(=O)n(Cc2ccc(CNC(=O)C(C)c3ccc(CC(C)C)cc3)cc2)c1=O (configuration not stated)
- GI50: 0.945 µM
- TGI: 2.45 µM

Structure (SMILES): C#Cc1nc(C2=C(C)/C(=N/OCc3ccccc3)CC2)cs1
- GI50: 17.8 µM
- TGI: 94.7 µM

Structure (SMILES): C#CCn1cccc1CNc1ccc(OC)cc1
- GI50: 14.2 µM
- TGI: 60.5 µM

Structure (SMILES): O=C(NOCCO)c1ccc2cncn2c1Nc1ccc(I)cc1F
- GI50: > 10 µM and 22.3 µM
- TGI: > 100 µM

Structure (SMILES): O=C(CC1(O)C(=O)Nc2ccc(Cl)cc21)c1ccc(C(=O)NCC2CCC3(CC2)OOC2(CCCCC2)OO3)cc1 (configuration not stated)
- GI50: 2.12 µM
- TGI: 5.66 µM

Structure (SMILES): COc1cc(C(=O)/C=C/c2c[nH]c3ccccc23)cc(OC)c1OC
- GI50: 0.0857 µM
- TGI: 1.61 µM

Structure (SMILES): CCNC(=O)N1CCc2cc(OC)c(OCCc3ccc(OC)cc3)cc2C1c1ccc([N+](=O)[O-])cc1C (configuration not stated)
- GI50: 1.37 µM
- TGI: 4.78 µM

Structure (SMILES): CC/C(=C/c1ccc(OC)cc1)[N+](=O)[O-]
- GI50: 1.83 µM
- TGI: 3.63 µM

Structure (SMILES): CC(=O)NC(C)(C)C(=O)N1CCC[C@H]1C(=O)NC(C)(C)C(=O)N[C@@H](C)C(=O)NC(C)(C)C(=O)NC(C)(C)C(=O)N[C@@H](CCC(N)=O)C(=O)NC(C)(C)C(=O)N[C@H](C(=O)NC(C)(C)C(=O)NCC(=O)N[C@@H](CC(C)C)C(=O)NC(C)(C)C(=O)N1CCC[C@H]1C(=O)N[C@H](C(=O)NC(C)(C)C(=O)NC(C)(C)C(=O)N[C@@H](CCC(N)=O)C(=O)N[C@@H](CCC(N)=O)C(=O)N[C@H](CO)Cc1ccccc1)C(C)C)C(C)C (Ac-[Aib]P[Aib]A[Aib][Aib]Q[Aib]V[Aib]GL[Aib]PV[Aib][Aib]QQ[Phe(ol)])
- GI50: 0.209 µM
- TGI: 2.36 µM

Structure (SMILES): Cc1cnc(C(=O)Nc2nc3ccc(S(=O)(=O)Nc4ccc(C(C)(C)C)cc4)cc3[nH]2)cn1
- GI50: 0.27 µM
- TGI: 1.73 µM

Structure (SMILES): COc1ccc([C@@H]2[C@@H](Cl)C(=O)N2c2cc(OC)c(OC)c(OC)c2)cc1C
- GI50: 0.0414 µM
- TGI: > 100 µM

Structure (SMILES): O=C(NCCN1CCOCC1)c1cc2c(Oc3ccc(NC(=O)C4(C(=O)Nc5ccc(F)cc5)CC4)cc3)ccnc2[nH]1
- GI50: 2.31 µM
- TGI: 13.6 µM

Structure (SMILES): CC1CCc2c(C(=O)Nc3ncc(Cc4cccc([N+](=O)[O-])c4)s3)csc2C1 (configuration not stated)
- GI50: 0.345 µM
- TGI: > 100 µM

Structure (SMILES): CC[C@H](C)[C@H](NC(=O)CN(C)C)C(=O)N(C)[C@H](C[C@@H](OC(C)=O)c1nc(C(=O)NC23C4C5C2C2C3C4C52C(=O)OC)cs1)C(C)C (some centres not stated)
- GI50: 0.147 µM
- TGI: > 33.2 µM

Structure (SMILES): COc1cc(OC)c(/C=C/S(=O)(=O)Cc2ccc(OC)c(N)n2)c(OC)c1
- GI50: < 0.01 µM
- TGI: > 100 µM

Structure (SMILES): Nc1nc(SCC#CCCl)c2[nH]cnc2n1
- GI50: 1.88 µM
- TGI: 6.38 µM

Structure (SMILES): Cc1cc2nc3c4cc(C#N)ccc4n(CCN(C)C)c3nc2cc1C
- GI50: 1.33 µM
- TGI: 3.91 µM

Structure (SMILES): CO/N=C1\CCc2c(sc(NC(=O)c3cccc(C(F)(F)F)c3)c2C(N)=O)C1
- GI50: 1.5 µM
- TGI: 5.91 µM

Structure (SMILES): COC(=O)c1sc(-n2cnc3cc(OC)c(OC)cc32)cc1OCc1ccccc1C(F)(F)F
- GI50: 3.72 µM
- TGI: > 25 µM

Structure (SMILES): COc1cccc(/C=C\C(=O)c2ccccc2)c1
- GI50: 2.14 µM
- TGI: 6.49 µM

Structure (SMILES): O=C1c2ccccc2-c2cn(Cc3ccccc3)c3cccc(c23)C1c1cccnc1 (configuration not stated)
- GI50: 2 µM
- TGI: 37.6 µM

Structure (SMILES): CC(C)(C)n1cc(-c2ccnc(NCCCNS(=O)(=O)c3cccc4ccccc34)c2)c(-c2cccc(O)c2)n1
- GI50: 2.04 µM
- TGI: 5.39 µM

Structure (SMILES): Cc1ccc(C)c(N2CCN(c3ccncc3N)CC2)c1
- GI50: 3.4 µM
- TGI: 18 µM

Structure (SMILES): COc1cc(/C=N\Nc2ccccc2)ccc1OC(=O)c1ccccc1
- GI50: 2.74 µM
- TGI: 34.8 µM

Structure (SMILES): ClC/C=C/CSc1ncnc2nc[nH]c12
- GI50: > 100 µM
- TGI: > 100 µM

Structure (SMILES): COc1ccc(/C=C\c2cc(OC)c(OC)c(OC)c2)cc1NC(=O)/C=C/c1cc(OC)c(OC)c(OC)c1
- GI50: 1.82 µM
- TGI: 6.66 µM

Structure (SMILES): CCCCCCCCCC(=O)Oc1ccc(/C(=C(/C)c2ccccc2)c2ccc(OCCN3CCCC3)cc2)cc1
- GI50: 7.25 µM
- TGI: 14.7 µM

Structure (SMILES): O=C1c2ccc3c4c(ccc(c24)C(=O)N1CCCCO)C(=O)N(CCCCO)C3=O
- GI50: 1.21 µM
- TGI: 3.22 µM

Structure (SMILES): Oc1ccccc1/C=N\NC(=S)Nc1ccc(F)cc1
- GI50: 2.53 µM
- TGI: 26.5 µM

Structure (SMILES): CN1CCN(Cc2ccc(NC(=O)c3cncc(C#Cc4c(N)ncc5ccccc45)c3)cc2C(F)(F)F)CC1
- GI50: 0.818 µM
- TGI: 1.63 µM

Structure (SMILES): COc1cc([C@@H]2c3cc4c(cc3[C@@H](OC3OC5COC(C)OC5C(O)C3O)[C@H]3COC(=O)[C@H]23)OCO4)cc(OC)c1O (some centres not stated)
- GI50: 2.73 µM and 2.12 µM
- TGI: 22.3 µM and 18.7 µM

Structure (SMILES): NS(=O)(=O)c1cccc(Nc2cc(-c3ccc(F)cc3)[nH]n2)c1
- GI50: > 23.6 µM
- TGI: > 25 µM

Structure (SMILES): N#Cc1cnn(C(=O)c2nn(-c3ccc(Cl)cc3)cc2O)c1N
- GI50: 0.948 µM
- TGI: 15.1 µM

Structure (SMILES): CNC(=O)c1sc(-n2cnc3cc(OC)c(OC)cc32)cc1OCc1ccccc1C(F)(F)F
- GI50: > 19 µM
- TGI: > 25 µM

Structure (SMILES): COc1cc(/C=N/NC(=O)c2cnn3c2NC(c2ccccc2)C3)ccc1OCc1ccccc1 (configuration not stated)
- GI50: 0.318 µM
- TGI: 2.16 µM
